Our source for the Ki values is BindingDB's records for doi:10.1124/jpet.301.3.1166 (University of North Carolina, 2002).

pKi: −log10 of the molar value. Where “and” joins values, the source holds several entries; their conditions need not be identical. Equal entries are not always repeated.

The target in one assay is D(2) dopamine receptor (Rattus norvegicus, UniProt P61169).
A further assay has as its target D(1A) dopamine receptor (Rattus norvegicus, UniProt P18901).

Chain of D(2) dopamine receptor (P61169 whole entry): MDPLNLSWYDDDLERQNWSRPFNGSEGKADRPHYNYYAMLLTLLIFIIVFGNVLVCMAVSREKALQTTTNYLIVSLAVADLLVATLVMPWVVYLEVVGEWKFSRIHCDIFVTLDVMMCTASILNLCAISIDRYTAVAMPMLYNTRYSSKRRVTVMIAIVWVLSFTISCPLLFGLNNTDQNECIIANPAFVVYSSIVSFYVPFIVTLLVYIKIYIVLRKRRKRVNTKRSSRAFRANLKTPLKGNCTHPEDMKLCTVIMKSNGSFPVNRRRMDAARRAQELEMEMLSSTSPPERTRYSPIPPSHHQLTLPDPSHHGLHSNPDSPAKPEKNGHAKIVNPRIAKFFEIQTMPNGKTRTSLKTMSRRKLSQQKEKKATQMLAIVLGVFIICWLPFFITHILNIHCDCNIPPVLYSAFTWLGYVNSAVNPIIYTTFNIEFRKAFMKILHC
Chain of D(1A) dopamine receptor (P18901 whole entry): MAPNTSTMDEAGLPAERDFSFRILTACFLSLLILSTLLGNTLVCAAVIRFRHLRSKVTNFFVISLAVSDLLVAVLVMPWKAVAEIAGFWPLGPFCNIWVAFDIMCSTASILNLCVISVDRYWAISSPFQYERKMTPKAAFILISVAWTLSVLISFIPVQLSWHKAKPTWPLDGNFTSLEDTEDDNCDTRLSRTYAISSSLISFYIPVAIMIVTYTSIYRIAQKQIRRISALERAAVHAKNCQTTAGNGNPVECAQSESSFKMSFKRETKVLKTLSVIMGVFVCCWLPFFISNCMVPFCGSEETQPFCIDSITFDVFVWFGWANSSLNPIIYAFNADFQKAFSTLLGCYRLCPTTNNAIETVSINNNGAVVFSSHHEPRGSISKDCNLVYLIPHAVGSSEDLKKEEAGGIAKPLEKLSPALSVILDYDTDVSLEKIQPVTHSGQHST

Consider `CCCN1Cc2ccccc2[C@@H]2c3cc(O)c(O)cc3CC[C@H]21` [N-n-propyldihydrexidine, N-Pr-DHX], for which the pKi is 8.19 and 7.70 on D(2) dopamine receptor; 6.49 on D(1A) dopamine receptor.

For orientation: pKi means −log10 of the Ki, conventionally taken in molar units. Low values mean a high Ki, high ones a low Ki.
